From PubChem BioAssay AID588447 (Southern Research Specialized Biocontainment Screening …, 2011)
Several values for one entry are separate records, joined by “and”; a condition that tells them apart may be missing. Equal entries are not always repeated. Activity calls are given as the source filed them. No rule for the calls is given here.

Tests used:
[1] = system: Mycobacterium tuberculosis H37Rv growth, 7H9 media; test: Mycobacterium tuberculosis growth inhibition, dose response, 7H9 media, purified and synthesized compounds, set 8 (AID 588447); details: for IC50: measured here: IC50 growth inhibition replicates
[2] = as above; details: Mycobacterium tuberculosis H37Rv growth, 7H9 media

| SMILES | IC50 [1] | also measured |
| --- | --- | --- |
| CCOC(=O)N1CCC(Nc2c(Nc3cccc(CC)c3)c(=O)c2=O)CC1 | 61.5 µM | IC90 [1]: 87.5 µM |
| O=C(C1CCC(CNc2c(N3CCCCC3)c(=O)c2=O)CC1)N1CCCCC1 (centres undefined) | 30.8 µM | – |
| COc1ccc(N2CCN(C(=O)c3ccc(CNc4c(N5CCOCC5)c(=O)c4=O)cc3)CC2)cc1 | 10.7 µM and 9.56 µM | – |
| O=C(NCCc1ccc(Cl)cc1)C1CCC(CNc2c(N3CCCCC3)c(=O)c2=O)CC1 (centres undefined) | 56.3 µM | – |
| CC(=O)c1ccc(NC(=O)c2ccc(CNc3c(N4CCOCC4)c(=O)c3=O)cc2)cc1 | 75.7 µM | – |
| CC1CC(C)CN(C(=O)C2CCC(CNc3c(N4CCCCC4)c(=O)c3=O)CC2)C1 (centres undefined) | 19.9 µM and 26.3 µM | – |
| O=C(c1ccc(CNc2c(N3CCOCC3)c(=O)c2=O)cc1)N1CC=C(c2ccccc2)CC1 | 2.54 µM | IC90 [1]: 7.8 µM |
| CC1CCCN(C(=O)C2CCC(CNc3c(N4CCCCC4)c(=O)c3=O)CC2)C1 (centres undefined) | 39.8 µM | – |
| O=C(NCCc1ccc(Cl)cc1)c1ccc(CNc2c(N3CCOCC3)c(=O)c2=O)cc1 | 8.33 µM and 7.05 µM | – |
| CCOC(=O)CSc1ncnc2c1cnn2-c1ccccc1 | 26.8 µM | – |
| CC1CCCN(C(=O)c2ccc(CNc3c(N4CCCCC4)c(=O)c3=O)cc2)C1 (centres undefined) | 7 µM | – |
| CC(C)OC(=O)CSc1ncnc2c1cnn2-c1ccccc1 | 34.1 µM | – |
| CCC(C)NC(=O)CSc1nc2ccccc2c(=O)[nH]1 (centres undefined) | 5.98 µM | IC90 [1]: 8.3 µM |
| CC1CC(C)CN(C(=O)c2ccc(CNc3c(N4CCCC4)c(=O)c3=O)cc2)C1 (centres undefined) | 12.4 µM | – |
| CCOC(=O)CSc1ncnc2c1cnn2-c1ccc(C)cc1C | 4.29 µM | IC90 [1]: 5.85 µM |
| Cc1cccc(N2CCN(C(=O)c3ccc(CNc4c(N5CCC(C)CC5)c(=O)c4=O)cc3)CC2)c1C | 24.6 µM | growth inhibition ([2]; at 75 µM (top of the series)): 15.6% (inactive) |
| Cc1cccc(N2CCN(C(=O)c3ccc(CNc4c(N5CCC(C)CC5)c(=O)c4=O)cc3)CC2C)c1 (centres undefined) | 63.7 µM | – |
| CCOc1ccc(NC(=O)c2ccc(CNc3c(N4CCCC4)c(=O)c3=O)cc2)cc1 | – | growth inhibition ([2]; at 100 µM (top of the series)): -0.71% (inactive) |
| O=C(c1ccc(CNc2c(N3CCCC3)c(=O)c2=O)cc1)N1CC=C(c2ccccc2)CC1 | 7.68 µM and 4.36 µM | IC90 [1]: 25.3 µM |
| CC1CCN(C(=O)c2ccc(CNc3c(N4CCCC4)c(=O)c3=O)cc2)CC1 | 9.07 µM | – |
| O=C(c1ccc(CNc2c(N3CCCC3)c(=O)c2=O)cc1)N1CCc2ccccc2C1 | 7.01 µM | – |
| COC(=O)CSc1ncnc2c1cnn2-c1ccc(C)cc1C | 4.77 µM | IC90 [1]: 5.94 µM |
